Assay results published in PubChem BioAssay (NCI).
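96-well plates; 48 h exposure; 5 concentrations. Endpoints by linear interpolation between flanking doses. Not reached: highest tested concentration assigned. GI50 = concentration required for 50% inhibition of growth. The concentration for full growth arrest is given as TGI.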

Tests used:
Experiment in all cases: inhibition of tumour cell growth, NCI panel, 48 h
A549 NSCLC = test system: A549 NSCLC
ACHN renal = test system: ACHN renal
HCC-2998 colon = test system: HCC-2998 colon
HCT-15 colon = test system: HCT-15 colon
HOP-62 NSCLC = test system: HOP-62 NSCLC
NCI-H23 lung = test system: NCI-H23 lung
OVCAR-8 ovarian = test system: OVCAR-8 ovarian
SR leukemia = test system: SR leukemia
U251 CNS = test system: U251 CNS
UACC-257 melanoma = test system: UACC-257 melanoma

SMILES	GI50 (A549 NSCLC)	TGI (A549 NSCLC)	GI50 (ACHN renal)	TGI (ACHN renal)	GI50 (HCC-2998 colon)	TGI (HCC-2998 colon)	GI50 (HCT-15 colon)	TGI (HCT-15 colon)	GI50 (HOP-62 NSCLC)	TGI (HOP-62 NSCLC)	GI50 (NCI-H23 lung)	TGI (NCI-H23 lung)	GI50 (OVCAR-8 ovarian)	TGI (OVCAR-8 ovarian)	GI50 (SR leukemia)	TGI (SR leukemia)	GI50 (U251 CNS)	TGI (U251 CNS)	GI50 (UACC-257 melanoma)	TGI (UACC-257 melanoma)
Cc1cc2c(cc1Cl)N1C(=O)NS(=O)(=O)N=C1NS2(=O)=O	> 100 µM	> 100 µM	> 100 µM	> 100 µM	> 100 µM	> 100 µM	> 100 µM	> 100 µM	> 100 µM	> 100 µM	> 100 µM	> 100 µM	> 100 µM	> 100 µM	> 100 µM	> 100 µM	> 100 µM	> 100 µM	> 100 µM	> 100 µM
Oc1cccc(-c2nc(-c3ccccc3)[nH]c2-c2ccncc2)c1	14.6 µM	> 25 µM	9.08 µM	> 25 µM	11.7 µM	> 25 µM	7.36 µM	> 20.3 µM	16.8 µM	> 25 µM	12.4 µM	> 25 µM	> 25 µM	> 25 µM	11.3 µM	> 25 µM	17.1 µM	> 25 µM	2.97 µM	14 µM
COC1=CC2CCN3Cc4cc5c(cc4C(C1O)C23)OCC5 (stereo not drawn)	1.26 µM	8.19 µM	0.306 µM	2.31 µM	1.09 µM	7.37 µM	1.31 µM	8.49 µM	3.61 µM	> 61.4 µM	2.17 µM	8.28 µM	3.75 µM	37.3 µM	–	> 100 µM	1.53 µM	11.4 µM	2.09 µM	34.6 µM
COc1c2ccccc2c(O)c2c(=O)ccn(C)c12	9.14 µM	> 67.3 µM	6.13 µM	46.3 µM	3.68 µM	20 µM	3.72 µM	19.6 µM	5.48 µM	33 µM	1.73 µM	4.08 µM	4.42 µM	38.1 µM	8.94 µM	81.8 µM	2.67 µM	13.4 µM	3.45 µM	12.6 µM
CCCCC(C(=O)CCC(=O)Nc1ccc(Cl)cc1)C(=O)C(C)C (stereo not drawn)	–	> 100 µM	–	> 100 µM	–	> 100 µM	–	> 100 µM	–	> 100 µM	–	> 100 µM	–	> 100 µM	–	> 100 µM	–	> 100 µM	–	> 100 µM
CC[C@@]1(O)C(=O)NCc2c1cc1n(c2=O)Cc2cc3c(NC(C)=O)cccc3nc2-1	> 100 µM	> 100 µM	> 100 µM	> 100 µM	> 100 µM	> 100 µM	> 100 µM	> 100 µM	> 100 µM	> 100 µM	> 100 µM	> 100 µM	> 100 µM	> 100 µM	> 100 µM	> 100 µM	> 100 µM	> 100 µM	> 100 µM	> 100 µM
CN1CCN(c2ccc(Nc3ncc4cc5n(c4n3)C3(CCCCC3)CNC5=O)nc2)CC1	1.47 µM	16.2 µM	0.847 µM	12.6 µM	6.14 µM	30.4 µM	2.16 µM	13.2 µM	1.06 µM	12.8 µM	2.19 µM	15.7 µM	4.11 µM	86.1 µM	0.307 µM	3.28 µM	1.32 µM	28.2 µM	5.67 µM	39.2 µM
COC(=O)C1(O)c2ccccc2N=C2C1CCN2C (stereo not drawn)	–	> 100 µM	–	> 100 µM	–	> 100 µM	–	> 100 µM	–	> 100 µM	–	> 100 µM	–	> 100 µM	–	> 100 µM	–	> 100 µM	–	> 100 µM
COC(CC1(OC)OC(=O)C=C1N)OC (stereo not drawn)	–	> 100 µM	–	> 100 µM	–	> 100 µM	–	> 100 µM	–	> 100 µM	–	> 100 µM	–	> 100 µM	–	> 100 µM	–	> 100 µM	–	> 100 µM
COc1cc(NC(=O)c2ccccc2Nc2ccnc(C(F)(F)F)c2)cc(OC)c1OC	58.1 µM	> 100 µM	99.9 µM	> 100 µM	88.3 µM	> 100 µM	56.1 µM	> 100 µM	88.9 µM	> 100 µM	44 µM	> 100 µM	69.6 µM	> 100 µM	47.3 µM	> 100 µM	82.7 µM	> 100 µM	88.2 µM	> 100 µM
CNCCN(C)Cc1cn[nH]c1-c1ccc(OC2CC(OCCC3CCOCC3)C2)cc1 (stereo not drawn)	> 100 µM	> 100 µM	64.6 µM	> 100 µM	> 100 µM	> 100 µM	> 100 µM	> 100 µM	99.1 µM	> 100 µM	> 91.7 µM	> 100 µM	> 100 µM	> 100 µM	25.9 µM	> 100 µM	55.2 µM	> 100 µM	61.6 µM	> 100 µM
OCc1ccc(N(Cc2ccc(F)cc2)CC2CCC2)cc1Cl	8.49 µM	22.4 µM	13 µM	26 µM	11.5 µM	25.2 µM	11.7 µM	25 µM	10 µM	22.7 µM	10.7 µM	24.7 µM	14.7 µM	32.4 µM	11.7 µM	29 µM	5.43 µM	19.6 µM	1.53 µM	7.78 µM
O=c1c2cc(O)c(O)cc2oc2cc(O)c(C3OC(CO)C(O)C(O)C3O)c(O)c12 (stereo not drawn)	–	> 100 µM	–	> 100 µM	–	> 100 µM	–	> 100 µM	–	> 100 µM	–	> 100 µM	–	> 100 µM	–	> 100 µM	–	> 100 µM	–	> 100 µM
Cc1ccc2nc3c(C)cc(=O)cc-3sc2c1	–	54.6 µM	–	53.1 µM	–	70.9 µM	–	40.9 µM	–	58.8 µM	–	52.8 µM	–	> 100 µM	–	46.7 µM	–	> 100 µM	–	59.2 µM
N[C@@H](CSSC[C@H](N)C(=O)N1CCn2cc(-c3ccccc3)nc2[C@@H]1CC1CCCCC1)C(=O)N1CCn2cc(-c3ccccc3)nc2[C@@H]1CC1CCCCC1	1.37 µM	3.05 µM	1.77 µM	3.81 µM	1.66 µM	3.17 µM	1.82 µM	3.71 µM	1.59 µM	3.25 µM	1.41 µM	3.14 µM	1.87 µM	5.76 µM	1.38 µM	–	1.37 µM	2.76 µM	1.4 µM	3.32 µM
COc1ccc2c(c1)N(CCO)C1=C(C(=O)OC1)C2c1ccc(OC)c(OC)c1 (stereo not drawn)	3.86 µM	> 100 µM	6.3 µM	> 100 µM	2.61 µM	> 100 µM	3.09 µM	> 100 µM	4.89 µM	> 100 µM	3.39 µM	> 100 µM	3.34 µM	> 100 µM	3.68 µM	> 100 µM	2.97 µM	> 100 µM	3.38 µM	> 100 µM
